Data on seven compounds can be found in PubChem BioAssay AID1259407 (Chemical Carcinogenesis Research Information System (CCRIS), 2018).

Active and inactive are the calls of the source. The rule behind the calls is not given here.

For the data set, the system named is CCRIS mutagenicity, Ames/micronucleus/aberration tests. Kind of data set: CCRIS mutagenicity studies.
[1] abbreviates: Test System: AMES SALMONELLA TYPHIMURIUM, Strain/Indicator: TA98, Metabolic Activation: HAMSTER, LIVER, S-9, AROCLOR 1254 (10%), Method: PREINCUBATION
[2] abbreviates: Test System: AMES SALMONELLA TYPHIMURIUM, Strain/Indicator: TA98, Metabolic Activation: NONE, Method: PREINCUBATION
[3] abbreviates: Test System: AMES SALMONELLA TYPHIMURIUM, Strain/Indicator: TA98, Metabolic Activation: RAT, LIVER, S-9, AROCLOR 1254 (10%), Method: PREINCUBATION
[4] abbreviates: Test System: AMES SALMONELLA TYPHIMURIUM, Strain/Indicator: TA100, Metabolic Activation: HAMSTER, LIVER, S-9, AROCLOR 1254 (10%), Method: PREINCUBATION
Setting [5] is: Test System: AMES SALMONELLA TYPHIMURIUM, Strain/Indicator: TA100, Metabolic Activation: NONE, Method: PREINCUBATION
Setting [6] is: Test System: AMES SALMONELLA TYPHIMURIUM, Strain/Indicator: TA100, Metabolic Activation: RAT, LIVER, S-9, AROCLOR 1254 (10%), Method: PREINCUBATION
Setting [7] is: Test System: AMES SALMONELLA TYPHIMURIUM, Strain/Indicator: TA1535, Metabolic Activation: HAMSTER, LIVER, S-9, AROCLOR 1254 (10%), Method: PREINCUBATION
Setting [8] is: Test System: AMES SALMONELLA TYPHIMURIUM, Strain/Indicator: TA1535, Metabolic Activation: NONE, Method: PREINCUBATION
[9] abbreviates: Test System: AMES SALMONELLA TYPHIMURIUM, Strain/Indicator: TA1535, Metabolic Activation: RAT, LIVER, S-9, AROCLOR 1254 (10%), Method: PREINCUBATION

In the case of `O=c1c2ccc3c4c(ccc(c24)c2nc4ccccc4n12)c(=O)n1c2ccccc2nc31`, the mutagenic call is “inactive; negative” (Test System: AMES SALMONELLA TYPHIMURIUM, Strain/Indicator: TA97, Metabolic Activation: HAMSTER, LIVER, S-9, AROCLOR 1254 (10%), Method: PREINCUBATION); “active; positive” (Test System: AMES SALMONELLA TYPHIMURIUM, Strain/Indicator: TA97, Metabolic Activation: NONE, Method: PREINCUBATION); “inactive; negative” (Test System: AMES SALMONELLA TYPHIMURIUM, Strain/Indicator: TA97, Metabolic Activation: RAT, LIVER, S-9, AROCLOR 1254 (10%), Method: PREINCUBATION); “active; positive” under setting [1]; “active; positive” under setting [2]; “inactive; negative” under setting [3]. Moreover, the mutagenic call under setting [4] is “inactive; negative”; the mutagenic call under setting [5] is “inactive; negative”; the mutagenic call under setting [6] is “inactive; negative”; the mutagenic call under setting [7] is “inactive; negative”; the mutagenic call under setting [8] was “inactive; negative”; the mutagenic call under setting [9] was “inactive; negative”.

`COc1ccc2nc(N)[nH]c2c1`: the mutagenic call was “inactive; negative” (Test System: AMES SALMONELLA TYPHIMURIUM, Strain/Indicator: TA98, Metabolic Activation: RAT, LIVER, S-9, AROCLOR 1254, Method: PREINCUBATION) and “inactive; negative” (Test System: AMES SALMONELLA TYPHIMURIUM, Strain/Indicator: TA100, Metabolic Activation: RAT, LIVER, S-9, AROCLOR 1254, Method: PREINCUBATION).

For `C[C@@H]1C[C@]2(O[C@@H]2C)C(=O)O[C@@H]2CCN(C)C/C=C(/COC(=O)[C@]1(C)O)C2=O`, the mutagenic call is, setting by setting: (Test System: AMES SALMONELLA TYPHIMURIUM, Strain/Indicator: TA100, Metabolic Activation: HAMSTER, LIVER, S-9, PCB, Method: PREINCUBATION) “inactive; negative; by authors criteria results are positive”; (Test System: AMES SALMONELLA TYPHIMURIUM, Strain/Indicator: TA100, Metabolic Activation: RAT, LIVER, S-9, PCB, Method: PREINCUBATION) “active; positive”; (Test System: UDS RAT HEPATOCYTES, Strain/Indicator: THY INCORP, Metabolic Activation: NONE, Method: AUTORADIOGRAPHY) “active; positive”.

Consider `Clc1cc2c3nc4[n-]c(nc5nc(nc6nc(nc([n-]3)c2c(Cl)c1Cl)-c1c(Cl)c(Cl)c(Cl)c(Cl)c1-6)-c1c(Cl)c(Cl)c(Cl)c(Cl)c1-5)c1c(Cl)c(Cl)c(Cl)c(Cl)c41.[Cu+2]`, for which the mutagenic call by setting is: (Test System: AMES SALMONELLA TYPHIMURIUM, Strain/Indicator: TA98, Metabolic Activation: HAMSTER, LIVER, S-9, AROCLOR 1254 (30%), Method: PREINCUBATION) “active; positive”; under setting [2], “inactive; negative”; (Test System: AMES SALMONELLA TYPHIMURIUM, Strain/Indicator: TA98, Metabolic Activation: RAT, LIVER, S-9, AROCLOR 1254 (30%), Method: PREINCUBATION) “active; positive”; (Test System: AMES SALMONELLA TYPHIMURIUM, Strain/Indicator: TA100, Metabolic Activation: HAMSTER, LIVER, S-9, AROCLOR 1254 (30%), Method: PREINCUBATION) “inactive; negative”; under setting [5], “inactive; negative”; (Test System: AMES SALMONELLA TYPHIMURIUM, Strain/Indicator: TA100, Metabolic Activation: RAT, LIVER, S-9, AROCLOR 1254 (30%), Method: PREINCUBATION) “inactive; negative”.

In the case of `COc1cc(O)c2c(=O)c3c(OC)cc4c(c3oc2c1OC)[C@@H]1C=CO[C@@H]1O4`, the mutagenic call was “inactive; negative” (Test System: AMES SALMONELLA TYPHIMURIUM, Strain/Indicator: TA98, Metabolic Activation: RAT, LIVER, S-9, PHENOBARBITAL, Method: STANDARD PLATE) and “active; positive” (Test System: AMES SALMONELLA TYPHIMURIUM, Strain/Indicator: TA100, Metabolic Activation: RAT, LIVER, S-9, PHENOBARBITAL, Method: STANDARD PLATE).

Take `COc1cc(Nc2c3ccccc3nc3ccccc23)ccc1NS(C)(=O)=O`: where the note is “Test System: MOUSE LYMPHOMA, Strain/Indicator: L5178Y (TK+/TK-), Metabolic Activation: NONE, Method: SUSPENSION/PLATE”, the mutagenic call is “active; positive”.

On to `CC(C)CC(C)Nc1ccc(Nc2ccccc2)cc1` (stereo unspecified), for which the mutagenic call reads like this: (Test System: AMES SALMONELLA TYPHIMURIUM, Strain/Indicator: TA97, Metabolic Activation: MOUSE, LIVER, S-9, DELOR 103, Method: STANDARD PLATE) “inactive; negative”; (Test System: AMES SALMONELLA TYPHIMURIUM, Strain/Indicator: TA97, Metabolic Activation: NONE, Method: STANDARD PLATE) “inactive; negative”; under setting [1], “inactive; negative”; (Test System: AMES SALMONELLA TYPHIMURIUM, Strain/Indicator: TA98, Metabolic Activation: MOUSE, LIVER, S-9, DELOR 103, Method: STANDARD PLATE) “inactive; negative”; under setting [2], “inactive; negative”; (Test System: AMES SALMONELLA TYPHIMURIUM, Strain/Indicator: TA98, Metabolic Activation: NONE, Method: STANDARD PLATE) “inactive; negative”. Besides, the mutagenic call under setting [3] was “inactive; negative”; the mutagenic call under setting [4] was “inactive; negative”; the mutagenic call (Test System: AMES SALMONELLA TYPHIMURIUM, Strain/Indicator: TA100, Metabolic Activation: MOUSE, LIVER, S-9, DELOR 103, Method: STANDARD PLATE) is “inactive; negative”; the mutagenic call under setting [5] was “inactive; negative”; the mutagenic call (Test System: AMES SALMONELLA TYPHIMURIUM, Strain/Indicator: TA100, Metabolic Activation: NONE, Method: STANDARD PLATE) was “inactive; negative”; the mutagenic call under setting [6] is “inactive; negative”. The mutagenic call runs as follows: under setting [7], “inactive; negative”; under setting [8], “inactive; negative”; (Test System: AMES SALMONELLA TYPHIMURIUM, Strain/Indicator: TA1535, Metabolic Activation: NONE, Method: STANDARD PLATE) “inactive; negative”; under setting [9], “inactive; negative”; (Test System: AMES SALMONELLA TYPHIMURIUM, Strain/Indicator: TA1537, Metabolic Activation: HAMSTER, LIVER, S-9, AROCLOR 1254 (10%), Method: PREINCUBATION) “inactive; negative”; (Test System: AMES SALMONELLA TYPHIMURIUM, Strain/Indicator: TA1537, Metabolic Activation: NONE, Method: PREINCUBATION) “inactive; negative”. Further, the mutagenic call is, setting by setting: (Test System: AMES SALMONELLA TYPHIMURIUM, Strain/Indicator: TA1537, Metabolic Activation: RAT, LIVER, S-9, AROCLOR 1254 (10%), Method: PREINCUBATION) “inactive; negative”; (Test System: AMES SALMONELLA TYPHIMURIUM, Strain/Indicator: TA1538, Metabolic Activation: NONE, Method: STANDARD PLATE) “inactive; negative”.
